{"source": "paper PMC12735773", "about": "“Toward Brain NaV1.8 Imaging with [^11C]Suzetrigine” (Pharmaceuticals, 2025)", "key": {"NaV1.8 [1]": {"molecular_target": "T1, NaV1.8 (Rattus norvegicus, UniProt Q62968)", "T1 construct": "gene Scn10a; native protein in rat brain sections", "T1 sequence (Q62968 whole entry)": "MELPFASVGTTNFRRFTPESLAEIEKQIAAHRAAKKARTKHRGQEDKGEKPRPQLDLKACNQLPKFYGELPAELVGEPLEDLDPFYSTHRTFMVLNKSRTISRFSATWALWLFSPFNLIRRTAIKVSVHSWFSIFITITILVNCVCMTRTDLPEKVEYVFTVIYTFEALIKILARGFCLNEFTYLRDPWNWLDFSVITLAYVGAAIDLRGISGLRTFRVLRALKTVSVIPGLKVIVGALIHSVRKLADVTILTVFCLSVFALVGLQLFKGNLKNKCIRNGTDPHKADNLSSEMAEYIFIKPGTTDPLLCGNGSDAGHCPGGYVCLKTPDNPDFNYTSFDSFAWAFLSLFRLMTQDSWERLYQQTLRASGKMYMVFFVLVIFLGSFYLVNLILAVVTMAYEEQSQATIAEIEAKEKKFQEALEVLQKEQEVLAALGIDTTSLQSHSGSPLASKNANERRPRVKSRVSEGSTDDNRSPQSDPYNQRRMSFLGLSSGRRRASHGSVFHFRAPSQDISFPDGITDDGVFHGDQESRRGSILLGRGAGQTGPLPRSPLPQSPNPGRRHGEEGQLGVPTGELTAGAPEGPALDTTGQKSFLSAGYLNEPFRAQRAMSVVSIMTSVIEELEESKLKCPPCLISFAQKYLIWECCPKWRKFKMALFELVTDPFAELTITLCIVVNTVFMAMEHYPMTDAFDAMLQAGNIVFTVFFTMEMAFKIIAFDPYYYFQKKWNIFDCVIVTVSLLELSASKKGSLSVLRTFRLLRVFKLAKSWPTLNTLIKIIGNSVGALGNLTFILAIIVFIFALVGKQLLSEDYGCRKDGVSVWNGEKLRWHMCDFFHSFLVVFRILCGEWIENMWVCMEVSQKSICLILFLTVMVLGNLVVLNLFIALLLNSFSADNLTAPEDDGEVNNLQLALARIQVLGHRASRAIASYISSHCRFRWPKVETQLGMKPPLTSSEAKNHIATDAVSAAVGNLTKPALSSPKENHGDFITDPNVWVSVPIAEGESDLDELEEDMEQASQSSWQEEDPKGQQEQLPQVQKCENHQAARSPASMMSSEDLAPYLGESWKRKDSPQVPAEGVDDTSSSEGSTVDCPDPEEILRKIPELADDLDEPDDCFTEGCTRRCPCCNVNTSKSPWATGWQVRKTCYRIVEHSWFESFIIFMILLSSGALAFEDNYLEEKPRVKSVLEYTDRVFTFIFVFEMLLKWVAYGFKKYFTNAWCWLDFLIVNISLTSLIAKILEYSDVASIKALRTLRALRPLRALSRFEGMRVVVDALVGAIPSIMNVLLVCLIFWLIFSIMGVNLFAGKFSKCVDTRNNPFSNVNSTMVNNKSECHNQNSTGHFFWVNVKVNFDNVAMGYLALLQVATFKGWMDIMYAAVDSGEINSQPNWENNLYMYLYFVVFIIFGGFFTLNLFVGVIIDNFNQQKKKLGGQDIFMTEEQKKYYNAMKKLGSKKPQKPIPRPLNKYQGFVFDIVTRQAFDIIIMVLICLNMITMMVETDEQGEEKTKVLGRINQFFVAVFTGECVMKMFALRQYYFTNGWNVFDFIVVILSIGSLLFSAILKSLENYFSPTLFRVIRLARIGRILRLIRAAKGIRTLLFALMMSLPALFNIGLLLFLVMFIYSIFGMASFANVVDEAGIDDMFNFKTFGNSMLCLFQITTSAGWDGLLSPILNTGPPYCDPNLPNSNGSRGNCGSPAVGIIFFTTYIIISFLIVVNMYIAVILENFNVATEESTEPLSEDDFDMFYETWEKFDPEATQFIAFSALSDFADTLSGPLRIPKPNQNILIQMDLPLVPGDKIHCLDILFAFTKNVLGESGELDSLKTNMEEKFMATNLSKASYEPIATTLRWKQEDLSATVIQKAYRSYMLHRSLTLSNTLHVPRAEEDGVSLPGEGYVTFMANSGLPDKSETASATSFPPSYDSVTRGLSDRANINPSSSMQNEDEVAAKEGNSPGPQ", "assay": "competition autoradiography, displacement of [^11C]suzetrigine on rat brain sections", "settings": "read-out: % reduction of binding at 2 μM"}, "NaV1.8 [2]": {"molecular_target": "T1, NaV1.8", "assay": "radioligand saturation binding autoradiography on rat brain sections, with homologous block"}}, "data": [{"smiles": "COc1cc(NC(=O)c2ccc(-c3ccc(Cl)cc3)o2)cc(OC)c1", "note": "[A-803467]", "values": [{"measurement": "inhibition at 2 µM", "setting": "NaV1.8 [1]", "result": "~50", "unit": "%"}]}, {"smiles": "COc1c([C@H]2[C@H](C(=O)Nc3ccnc(C(N)=O)c3)O[C@@](C)(C(F)(F)F)[C@H]2C)ccc(F)c1F", "note": "[compound 2, suzetrigine]", "values": [{"measurement": "Kd", "setting": "NaV1.8 [2]", "result": 0.1, "unit": "nM"}]}]}
